This is an account of results in patent publication US12440487B2, “Method of normalizing the neutrophil to lymphocyte ratio in cancer patients with a selective glucocorticoid receptor antagonist” (Corcept Therapeutics Incorporated, priority 2019, dated 2025).

“And” between values parts separate entries of the source, which are not always exact repeats. Equal entries are not always repeated. “Also recorded” adds a separate entry of the source.

For assay [1], the system named is neutrophil-to-lymphocyte ratio (NLR). The experiment in a line: Prednisone-challenge NLR study in healthy subjects (NCT03508635, SAD and MAD cohorts). The assay is classed as in vivo, human. The method, then:
Methods: Lymphocyte and neutrophil abundance were determined using standard differential complete blood count tests.
(§1) Healthy subjects were enrolled in the NCT03508635 study of relacorilant. […] (C) is the Figure legend.
(§2) The intensive NLR sampling was conducted at time 0 (morning, pre-dose) and then 2, 4, 8, 12, and 24 hours thereafter. The single NLR samples were collected in the in the morning, pre-dose. The SAD portion of this experiment used a 500 mg dose while the MAD used a once daily 250 mg dose.
(§3) Blood was also drawn in the morning, pre-dose.

Assay [2] relates to neutrophil or lymphocyte abundance in the blood. The following applies: healthy men / healthy subjects; cited from earlier work.
Assay [3] concerns the target glucocorticoid receptor (GR) (Homo sapiens, UniProt P04150). The following applies: binds to GR, PR and AR; cited from earlier work.
For assay [4], the target named is T1, progesterone receptor (Homo sapiens, UniProt P06401).
T1 sequence (P06401 1-933): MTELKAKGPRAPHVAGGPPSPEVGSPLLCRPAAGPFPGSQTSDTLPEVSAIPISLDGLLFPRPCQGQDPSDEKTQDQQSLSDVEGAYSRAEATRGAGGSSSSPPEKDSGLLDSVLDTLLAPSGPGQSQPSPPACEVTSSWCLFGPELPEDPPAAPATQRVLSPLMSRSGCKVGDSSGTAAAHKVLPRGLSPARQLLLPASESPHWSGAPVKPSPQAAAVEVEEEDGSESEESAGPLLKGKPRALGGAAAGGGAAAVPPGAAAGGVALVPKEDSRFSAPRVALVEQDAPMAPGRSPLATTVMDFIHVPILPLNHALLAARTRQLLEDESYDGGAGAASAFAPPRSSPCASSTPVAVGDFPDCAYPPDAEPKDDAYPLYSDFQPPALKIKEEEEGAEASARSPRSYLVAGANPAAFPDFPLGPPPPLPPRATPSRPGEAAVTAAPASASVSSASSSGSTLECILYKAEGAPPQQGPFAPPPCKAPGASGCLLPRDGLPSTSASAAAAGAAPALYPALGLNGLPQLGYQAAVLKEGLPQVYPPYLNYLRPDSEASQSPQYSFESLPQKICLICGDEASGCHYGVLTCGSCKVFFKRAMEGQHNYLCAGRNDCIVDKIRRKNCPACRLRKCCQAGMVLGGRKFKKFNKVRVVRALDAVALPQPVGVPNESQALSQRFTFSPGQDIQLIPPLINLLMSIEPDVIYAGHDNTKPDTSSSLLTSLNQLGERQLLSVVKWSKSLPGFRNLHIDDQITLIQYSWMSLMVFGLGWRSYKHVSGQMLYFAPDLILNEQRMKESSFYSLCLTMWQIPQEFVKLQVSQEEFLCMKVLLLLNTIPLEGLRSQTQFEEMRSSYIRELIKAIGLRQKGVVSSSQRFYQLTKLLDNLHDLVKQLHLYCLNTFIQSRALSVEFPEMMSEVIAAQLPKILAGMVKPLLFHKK
The following applies: cited from earlier work.

In assay [5] the test system is neutrophil-to-lymphocyte ratio (NLR). The experiment in a line: 7-day single-agent relacorilant lead-in, NLR in patients with advanced solid tumors (NCT02762981). The format is in vivo, human. The following applies: for patients who experienced a decrease in NLR / average change in NLR: 7-day relacorilant lead-in. The method, then: The relacorilant lead-in included daily dosing of relacorilant alone (without nab-paclitaxel) for 7 days.
Drug concentrations were determined in study NCT02762981. Blood was collected at multiple timepoints on day 7 of relacorilant dosing. Upon collection, blood was chelated with EDTA, centrifuged, and plasma was aliquoted. Bioanalytical analyses were conducted by MicroConstants (San Diego, CA, USA). In brief, human plasma samples containing relacorilant and its stable-labeled analog as an internal standard and K3EDTA as the anticoagulant were buffered with an ammonium citrate solution and extracted with 2-butanol:hexane (2.5:97.5, v/v). The samples were vortex mixed, centrifuged and the lower portion was frozen in an ultra-cold freezer. The organic portion was transferred to a clean tube and evaporated under nitrogen. The extracts were dried, reconstituted and analyzed by reversed-phase HPLC using an ACE UltraCore SuperPhenylHexyl column. The mobile phase was nebulized using heated nitrogen in a Z-spray source/interface set to electrospray positive ionization mode. The ionized compounds were detected using MS/MS.
as §3

The test system is the same in assay [6]. The assay can be described thus: Relacorilant alone, NLR in healthy subjects (NCT03508635). The assay is classed as in vivo, human. The following applies: 250 mg for 14 continuous days, cohort of 7 healthy subjects, none with baseline NLR greater than 3. The method, then: as §1, §2, §3
The normalization of the NLR by relacorilant is thought to occur through antagonism of endogenous cortisol. If patients have elevated cortisol activity, relacorilant would be expected to normalize this activity. Alternatively, relacorilant alone could cause neutropenia (reduction in neutrophils) or lymphocytosis (increase in lymphocytes) via antagonism of normal endogenous cortisol. To distinguish these two possibilities, we assessed the effects of relacorilant alone in healthy subject with normal endogenous cortisol. After 14 administering 250 mg of relacorilant for 14 continuous days, no change in the NLR was observed across a cohort of 7 healthy subjects (FIG. 7).

Sequence of glucocorticoid receptor (GR) (P04150 whole entry, species assumed): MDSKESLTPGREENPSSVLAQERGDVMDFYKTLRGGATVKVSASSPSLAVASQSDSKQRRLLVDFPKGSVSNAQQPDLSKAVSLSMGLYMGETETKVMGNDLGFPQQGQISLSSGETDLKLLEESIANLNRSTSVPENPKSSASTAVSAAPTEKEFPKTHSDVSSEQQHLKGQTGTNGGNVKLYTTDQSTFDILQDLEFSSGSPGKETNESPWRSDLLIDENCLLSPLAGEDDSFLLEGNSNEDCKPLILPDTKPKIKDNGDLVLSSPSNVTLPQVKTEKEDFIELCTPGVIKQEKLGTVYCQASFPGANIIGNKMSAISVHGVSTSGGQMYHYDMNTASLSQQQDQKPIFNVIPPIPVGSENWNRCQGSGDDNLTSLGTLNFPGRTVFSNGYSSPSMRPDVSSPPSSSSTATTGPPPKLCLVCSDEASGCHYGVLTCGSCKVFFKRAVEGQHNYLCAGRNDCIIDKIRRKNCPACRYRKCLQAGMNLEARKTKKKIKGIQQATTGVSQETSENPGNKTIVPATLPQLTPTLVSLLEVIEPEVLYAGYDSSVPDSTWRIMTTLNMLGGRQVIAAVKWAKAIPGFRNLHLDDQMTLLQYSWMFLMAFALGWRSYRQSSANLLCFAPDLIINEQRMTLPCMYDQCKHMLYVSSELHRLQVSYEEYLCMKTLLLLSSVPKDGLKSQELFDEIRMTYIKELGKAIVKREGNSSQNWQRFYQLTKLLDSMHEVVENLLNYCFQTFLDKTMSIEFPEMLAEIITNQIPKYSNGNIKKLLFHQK

In the case of `C[C@]12C=CC(=O)C=C1CC[C@@H]1[C@@H]2C(=O)C[C@@]2(C)[C@H]1CC[C@]2(O)C(=O)CO` [prednisone, 17α,21-dihydroxypregna-1,4-diene-3,11,20-trione, reference compound], the “NLR area under the curve” value is 72 NLR*hr in assay [1] (25 mg prednisone after 14 consecutive days of placebo, different subjects); 61.7 NLR*hr in assay [1] (MAD cohort, 25 mg prednisone alone, same subjects on Day −5); 54.6 NLR*hr in assay [1] (SAD cohort, 25 mg prednisone alone). The “NLR at 8 hours post prednisone” value in assay [1] (9 healthy subjects, single dose 25 mg prednisone, baseline less than 2, returned to baseline after 24 hours) is “greater than 6”. In assay [1] (healthy subjects (n=9), 25 mg prednisone), the “acute increase of the neutrophil-to-lymphocyte ratio (NLR)” value was determined as 4.7 fold.
For `CC#C[C@]1(O)CC[C@H]2[C@@H]3CCC4=CC(=O)CCC4=C3[C@@H](c3ccc(N(C)C)cc3)C[C@@]21C` [mifepristone, 11β-(4-dimethylaminophenyl)-17β-hydroxy-17α-(1-propynyl)-estra-4,9-dien-3-one], the “effect on neutrophil or lymphocyte abundance in the blood” value in assay [2] was “does not alter”. Moreover, in assay [3], the “selectivity for GR” value is recorded as “not selective”.
For the molecule `Cn1cc(S(=O)(=O)N2CCC3=Cc4c(cnn4-c4ccc(F)cc4)C[C@]3(C(=O)c3cc(C(F)(F)F)ccn3)C2)cn1` [relacorilant, (R)-(1-(4-fluorophenyl)-6-((1-methyl-1H-pyrazol-4-yl)sulfonyl)-4,4a,5,6,7,8-hexahydro-1H-pyrazolo[3,4-g]isoquinolin-4a-yl)(4-(trifluoromethyl)pyridin-2-yl)methanone], the “antagonism of the progesterone receptor” value in assay [4] is reported as “does not antagonize”. For the same molecule, the “effect on prednisone-induced NLR increase” value in assay [1] (14 consecutive days of 250 mg/day relacorilant, then 25 mg prednisone, healthy subjects) is given as “significantly blunted; also recorded: reversed the effects”; in assay [1] (relacorilant co-administration with 25 mg prednisone, healthy subjects (n=9)) it was “reversed this effect”; in assay [1] (single 500 mg dose relacorilant with 25 mg prednisone, healthy subjects) it was “significantly blunted; also recorded: reversed the effects”. The “NLR area under the curve” value stood at 9.6 NLR*hr in assay [1] (MAD cohort, 25 mg prednisone after 14 consecutive days of 250 mg/day relacorilant) and 12.5 NLR*hr in assay [1] (SAD cohort, single 500 mg dose relacorilant administered with 25 mg prednisone). The “patients who experienced a decrease in NLR” value in assay [5] (patients with AUC between 2011-8000 ng*hr/ml (6/13)) is 46%; in assay [5] (patients with AUC<2011 ng*hr/ml or Cmax<442 ng/ml), “None”; in assay [5] (patients with Cmax between 442-1000 ng/ml (6/9)) it was 67%. Moreover, the “average change in NLR” value in assay [5] (patients with AUC between 3740-8000 ng*hr/ml) was −6.1%; in assay [5] (patients with Cmax between 595-836 ng/ml), −4.4%. The “NLR change from baseline (CfB)” value in assay [5] (ovarian cancer patient 038-4004, 7-day relacorilant lead-in) is −46% and −55%. Also, the “NLR after relacorilant lead-in” value in assay [5] (ovarian cancer patient 038-4004, 7-day relacorilant lead-in, NLR before 5.5) is given as 2.5. Further, the “change in the NLR with relacorilant alone” value in assay [6] is listed as “no change; also recorded: does not change”.
